Measured values taken from US20260070945A1, “MACROCYCLIC IMMUNOMODULATORS” (Bristol-Myers Squibb Company, priority 2022, published 2026).
*1 amine or outer side, *2 acyl side, *3 side chain or, on linkers, in order; H or OH if unused. Where a SMILES comes first, the peptide text is derived from it. Bridges are numbered along the chain shown (N, C = ends). [ ]: non-standard residue; d: D form. The star is where a group is joined. ξ: configuration not given here. X10 = O=C(O)COc1ccc(C[C@H](CC(=O)C[*:2])C(=O)[*:1])cc1; Phe(3-CF3) = N[C@@H](Cc1cccc(C(F)(F)F)c1)C(=O)O; Phe(4-COOH) = N[C@@H](Cc1ccc(C(=O)O)cc1)C(=O)O; Bip = N[C@@H](Cc1ccc(-c2ccccc2)cc1)C(=O)O; Phe(4-NH2) = Nc1ccc(C[C@H](N)C(=O)O)cc1; NH(CH2)14COOH = O=C(O)CCCCCCCCCCCCCCN*; Phe(3-Me) = Cc1cccc(C[C@H](N)C(=O)O)c1; γGlu = O=C(O)[C@H](CCC(=O)[*:2])N[*:1]; βAsp = O=C(O)[C@H](CC(=O)[*:2])N[*:1]; NH(CH2)12COOH = O=C(O)CCCCCCCCCCCCN*; Val(3-OH) = CC(C)(O)[C@H](N)C(=O)O; hArg = N=C(N)NCCCC[C@H](N)C(=O)O; 4Pal = N[C@@H](Cc1ccncc1)C(=O)O; Cha = N[C@@H](CC1CCCCC1)C(=O)O; Ile(3ξ) = CCC(C)[C@H](N)C(=O)O; Thr(3ξ) = CC(O)[C@H](N)C(=O)O; X9 = NC(=O)CCCCCCCCCCCCCCN*; hSer = N[C@@H](CCO)C(=O)O; Carboxymethyl = O=C(O)C*; NMeA = CN[C@@H](C)C(=O)O; Orn = NCCC[C@H](N)C(=O)O; Aun = NCCCCCCCCCCC(=O)O; Dab = NCC[C@H](N)C(=O)O; Dap = NC[C@H](N)C(=O)O; AEEA = NCCOCCOCC(=O)O

Target: T1, PD-1/PD-L1 interaction (PE-labeled human PD-L1-Ig binding to Jurkat cell line over-expressing human PD-1) (Homo sapiens, UniProt Q15116)
T1 construct: expressed in transfected cells; host or cells: Jurkat
T1 sequence (Q15116 25-288): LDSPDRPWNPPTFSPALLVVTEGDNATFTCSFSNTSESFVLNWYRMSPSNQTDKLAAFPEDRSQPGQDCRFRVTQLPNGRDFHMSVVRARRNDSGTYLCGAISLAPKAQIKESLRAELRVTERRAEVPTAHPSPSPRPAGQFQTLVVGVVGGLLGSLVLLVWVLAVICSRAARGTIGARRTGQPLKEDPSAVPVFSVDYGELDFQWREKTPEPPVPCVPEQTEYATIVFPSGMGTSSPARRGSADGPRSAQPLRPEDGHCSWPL
Experiment: Jurkat-PD-1 Cell Binding High-Content Screening Assay (CBA)
Details: Jurkat-hPD-1 cells, PE-labeled PD-L1-Ig 20 nM final; read-out: Jurkat HPD1 PDL1 IC50
How it was run: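 Cells 8×10^3/well, DMEM + 10% FCS; cpd 2 h, 37 °C; PE–PD-L1-Ig 20 nM final, 1 h; PFA fix + Hoechst 33342, 3× dPBS wash; high-content imager.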

| Structure (SMILES) | IC50 [nM] |
| --- | --- |
| COC[C@@H]1NC(=O)CSC[C@@H](C(=O)N[C@@H](CCN)C(=O)NCCOCCOCC(=O)N[C@@H](CCC(=O)NCCOCCOCC(=O)NCCCCCCCCCCCCC(=O)O)C(=O)O)NC(=O)[C@H](CCC(=O)O)NC(=O)[C@H](C(C)C)NC(=O)[C@H](CC2CCCCC2)NC(=O)[C@H](CCN)NC(=O)[C@@H](CC(C)C)NC(=O)[C@H](C)N(C)C(=O)[C@H](CCC(N)=O)NC(=O)[C@H](Cc2ccc(-c3ccccc3)cc2)NC(=O)[C@H](Cc2ccc(C(=O)O)cc2)NC(=O)[C@H](Cc2cccc(C(F)(F)F)c2)NC(=O)[C@H](CC(=O)O)NC(=O)[C@H](Cc2ccc(OCC(=O)O)cc2)NC1=O [Example 1163] ({CH2CO}-S(Me)Y(Carboxymethyl)D[Phe(3-CF3)][Phe(4-COOH)][Bip]Q[NMeA][dL][Dab][Cha]VEC[Dab][AEEA][γGlu][AEEA]-{NH(CH2)12COOH}; thioether N-14) | 15.2 |
| CC(C)C[C@@H]1NC(=O)[C@H](Cc2c[nH]c3ccccc23)NC(=O)[C@H](CC(=O)O)NC(=O)[C@H](Cc2ccc(OCC(=O)O)cc2)NC(=O)[C@H](C(C)O)NC(=O)CSC[C@@H](C(=O)NCCOCCOCC(=O)NCCCCCCCCCCC(=O)O)NC(=O)[C@H](CCC(=O)O)NC(=O)[C@H](C(C)C)NC(=O)[C@H](CC2CCCCC2)NC(=O)[C@H](CCN)NC(=O)[C@@H](CC(C)C)NC(=O)[C@H](C)N(C)C(=O)[C@H](C(C)C)NC(=O)[C@H](Cc2ccc(-c3ccccc3)cc2)NC1=O (stereo partly drawn) [Example 2291] ({CH2CO}-[Thr(3ξ)]Y(Carboxymethyl)DWL[Bip]V[NMeA][dL][Dab][Cha]VEC[AEEA][Aun]-OH; thioether N-14) | 28.9 |
| CC(=O)NCCC[C@@H]1NC(=O)[C@H](C(C)C)NC(=O)[C@H](CC2CCCCC2)NC(=O)[C@H](CCN)NC(=O)[C@@H](CC(C)C)NC(=O)[C@H](C)N(C)C(=O)[C@H](C(C)C)NC(=O)[C@H](Cc2ccc(-c3ccccc3)cc2)NC(=O)[C@H](CC(C)C)NC(=O)[C@H](Cc2c[nH]c3ccccc23)NC(=O)[C@H](CC(=O)O)NC(=O)[C@H](Cc2ccncc2)NC(=O)[C@H](Cc2ccc(OCC(=O)O)cc2)NC(=O)CSC[C@@H](C(=O)NCC(=O)NCCOCCOCC(=O)N[C@@H](CN)C(=O)NCCCCCCCCCCC(=O)O)NC1=O [Example 2169] ({CH2CO}-Y(Carboxymethyl)[4Pal]DWL[Bip]V[NMeA][dL][Dab][Cha]V[Orn](Ac)CG[AEEA][Dap][Aun]-OH; thioether N-14) | 12.6 |
| CC(C)C[C@@H]1NC(=O)[C@H](Cc2c[nH]c3ccccc23)NC(=O)[C@H](CC(=O)O)NC(=O)[C@H](Cc2ccc(OCC(=O)O)cc2)NC(=O)[C@H](CCCCNC(=N)N)NC(=O)CSC[C@@H](C(=O)N[C@@H](C)C(=O)N[C@@H](CCN)C(=O)NCCCCCCCCCCCCCCC(=O)O)NC(=O)[C@H](CO)NC(=O)[C@H](C(C)C)NC(=O)[C@H](CC2CCCCC2)NC(=O)[C@H](CCN)NC(=O)[C@@H](CC(C)C)NC(=O)[C@H](C)N(C)C(=O)[C@H](C(C)C)NC(=O)[C@H](Cc2ccc(-c3ccccc3)cc2)NC1=O [Example 2002] ({CH2CO}-[hArg]Y(Carboxymethyl)DWL[Bip]V[NMeA][dL][Dab][Cha]VSCA[Dab]-{NH(CH2)14COOH}; thioether N-14) | 65.4 |
| CC(C)C[C@H]1NC(=O)[C@H](C)N(C)C(=O)[C@H](Cc2ccc(OCC(=O)O)cc2)NC(=O)[C@H](Cc2ccc(-c3ccccc3)cc2)NC(=O)[C@H](Cc2ccc(OCC(=O)O)cc2)NC(=O)[C@H](Cc2c[nH]c3ccccc23)NC(=O)[C@H](CC(=O)O)NC(=O)[C@H](Cc2ccc(OCC(=O)O)cc2)NC(=O)[C@H]([C@@H](C)O)NC(=O)CSC[C@@H](C(=O)N[C@@H](CCN)C(=O)NCCOCCOCC(=O)NCCCCCCCCCCC(=O)O)NC(=O)[C@H](CO)NC(=O)[C@H](C(C)C)NC(=O)[C@H](CC2CCCCC2)NC(=O)[C@H](CCC(=O)O)NC1=O [Example 1399] ({CH2CO}-TY(Carboxymethyl)DWY(Carboxymethyl)[Bip]Y(Carboxymethyl)[NMeA][dL]E[Cha]VSC[Dab][AEEA][Aun]-OH; thioether N-14) | 68.8 |
| Cc1cccc(C[C@@H]2NC(=O)[C@H](CC(=O)O)NC(=O)[C@H](Cc3ccc(OCC(=O)O)cc3)NC(=O)[C@H](CCN)NC(=O)CSC[C@@H](C(=O)N[C@@H](CCN)C(=O)NCCCCCCCCCCC(=O)O)NC(=O)[C@H](CO)NC(=O)[C@H](C(C)(C)O)NC(=O)[C@H](CC3CCCCC3)NC(=O)[C@H](CCN)NC(=O)[C@@H](CC(C)C)NC(=O)[C@H](C)N(C)C(=O)[C@H](Cc3ccc(OCC(=O)O)cc3)NC(=O)[C@H](Cc3ccc(-c4ccccc4)cc3)NC(=O)[C@H](Cc3ccc(N)cc3)NC2=O)c1 [Example 1307] ({CH2CO}-[Dab]Y(Carboxymethyl)D[Phe(3-Me)][Phe(4-NH2)][Bip]Y(Carboxymethyl)[NMeA][dL][Dab][Cha][Val(3-OH)]SC[Dab][Aun]-OH; thioether N-14) | 41.3 |
| CC(=O)NCCCC[C@@H]1NC(=O)[C@H](Cc2ccc(-c3ccccc3)cc2)NC(=O)[C@H](C(C)C)NC(=O)[C@H](Cc2c[nH]c3ccccc23)NC(=O)[C@H](CC(=O)O)NC(=O)[C@H](Cc2ccc(OCC(=O)O)cc2)NC(=O)[C@H](Cc2ccc(OCC(=O)O)cc2)NC(=O)CSC[C@@H](C(=O)NCCOCCOCC(=O)NCCCCCCCCCCC(=O)O)NC(=O)[C@H](CCO)NC(=O)[C@H](C(C)C)NC(=O)[C@H](CC2CCCCC2)NC(=O)[C@H](CCN)NC(=O)[C@@H](CC(C)C)NC(=O)[C@H](C)N(C)C1=O [Example 2316] ({CH2CO}-Y(Carboxymethyl)Y(Carboxymethyl)DWV[Bip]K(Ac)[NMeA][dL][Dab][Cha]V[hSer]C[AEEA][Aun]-OH; thioether N-14) | 11.3 |

Now from value to compound:

| IC50 [nM] | Structure (SMILES) |
| --- | --- |
| 129 | CC(C)C[C@@H]1NC(=O)[C@H](Cc2c[nH]c3ccccc23)NC(=O)[C@H](CC(=O)O)NC(=O)[C@H](Cc2ccc(OCC(=O)O)cc2)NC(=O)[C@H](Cc2ccncc2)NC(=O)CSC[C@@H](C(=O)N[C@@H](CC(N)=O)C(=O)N[C@@H](CC(=O)NCCOCCOCC(=O)NCCCCCCCCCCC(=O)O)C(=O)O)NC(=O)[C@H](CO)NC(=O)[C@H](C(C)C)NC(=O)[C@H](CC2CCCCC2)NC(=O)[C@H](CC(N)=O)NC(=O)[C@@H](CC(C)C)NC(=O)[C@H](C)N(C)C(=O)[C@H](C(C)C)NC(=O)[C@H](Cc2ccc(-c3ccccc3)cc2)NC1=O [Example 2022] ({CH2CO}-[4Pal]Y(Carboxymethyl)DWL[Bip]V[NMeA][dL]N[Cha]VSCN[βAsp][AEEA][Aun]-OH; thioether N-14) |
| 15 | Cc1cccc(C[C@@H]2NC(=O)[C@H](CC(=O)O)NC(=O)[C@H](Cc3ccc(OCC(=O)O)cc3)NC(=O)[C@H](CN)NC(=O)CSC[C@@H](C(=O)N[C@@H](CCN)C(=O)NCCCCCCCCCCC(=O)O)NC(=O)[C@H]([C@@H](C)O)NC(=O)[C@H](C(C)C)NC(=O)[C@H](CC3CCCCC3)NC(=O)[C@H](CCN)NC(=O)[C@@H](CC(C)C)NC(=O)[C@H](C)N(C)C(=O)[C@H](Cc3ccc(O)cc3)NC(=O)[C@H](Cc3ccc(-c4ccccc4)cc3)NC(=O)[C@H](C(C)C)NC2=O)c1 [Example 1320] ({CH2CO}-[Dap]Y(Carboxymethyl)D[Phe(3-Me)]V[Bip]Y[NMeA][dL][Dab][Cha]VTC[Dab][Aun]-OH; thioether N-14) |
| 24.7 | CCC(C)[C@@H]1NC(=O)[C@H](Cc2ccc(-c3ccccc3)cc2)NC(=O)[C@H](C(C)C)NC(=O)[C@H](Cc2cccc(C)c2)NC(=O)[C@H](CC(=O)O)NC(=O)[C@H](Cc2ccc(OCC(=O)O)cc2)NC(=O)[C@H](CCCNC(=N)N)NC(=O)CSC[C@@H](C(=O)N[C@H](CC(N)=O)C(=O)NCCCCCCCCCCC(=O)O)NC(=O)[C@H](C(C)O)NC(=O)[C@H](C(C)C)NC(=O)[C@H](CC2CCCCC2)NC(=O)[C@H](CCN)NC(=O)[C@@H](CC(C)C)NC(=O)[C@H](C)N(C)C1=O (stereo partly drawn) [Example 2298] ({CH2CO}-RY(Carboxymethyl)D[Phe(3-Me)]V[Bip][Ile(3ξ)][NMeA][dL][Dab][Cha]V[Thr(3ξ)]C[dN][Aun]-OH; thioether N-14) |
| 111 | Cc1cccc(C[C@@H]2NC(=O)[C@H](CC(=O)O)NC(=O)[C@H](Cc3ccc(C(=O)O)cc3)NC(=O)[C@H](Cc3ccc(OCC(=O)O)cc3)NC(=O)CSC[C@@H](C(=O)NCCCCCCCCCCC(=O)O)NC(=O)[C@H](CO)NC(=O)[C@H](C(C)C)NC(=O)[C@H](CC(C)C)NC(=O)[C@H](CC(N)=O)NC(=O)[C@@H](CC(C)C)NC(=O)[C@H](C)N(C)C(=O)[C@H](C(C)C)NC(=O)[C@H](Cc3ccc(-c4ccccc4)cc3)NC(=O)[C@H](CC(C)C)NC2=O)c1 [Example 1007] ({CH2CO}-Y(Carboxymethyl)[Phe(4-COOH)]D[Phe(3-Me)]L[Bip]V[NMeA][dL]NLVSC[Aun]-OH; thioether N-14) |

Same assay, conditions: PE-labeled PD-L1-Ig 20 nM final, Jurkat-hPD-1 cells; read-out: Jurkat HPD1 PDL1 IC50

| IC50 [nM] | Structure (SMILES) |
| --- | --- |
| 24.2 | CC(=O)NCCCC[C@@H]1NC(=O)[C@H](C(C)(C)O)NC(=O)[C@H](CC2CCCCC2)NC(=O)[C@H](CCN)NC(=O)[C@@H](CC(C)C)NC(=O)[C@H](C)N(C)C(=O)[C@H](CCC(N)=O)NC(=O)[C@H](Cc2ccc(-c3ccccc3)cc2)NC(=O)[C@H](Cc2ccc(C(=O)O)cc2)NC(=O)[C@H](Cc2cccc(C(F)(F)F)c2)NC(=O)[C@H](CC(=O)O)NC(=O)[C@H](Cc2ccc(OCC(=O)O)cc2)NC(=O)[C@H](Cc2ccc(OCC(=O)O)cc2)CC(=O)CSC[C@@H](C(=O)N[C@@H](CCN)C(=O)NCCOCCOCC(=O)N[C@@H](CC(=O)NCCCCCCCCCCCCCCC(N)=O)C(=O)O)NC1=O [Example 2637] (Y(Carboxymethyl)D[Phe(3-CF3)][Phe(4-COOH)][Bip]Q[NMeA][dL][Dab][Cha][Val(3-OH)]K(Ac)C[Dab][AEEA]D(X9)-OH; linker N-13 via X10) |
